For test [1], the system named is human lung cancer strain NCI-H441. The class given is cell-based. The method, boiled down:
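Signal came from […] measured per well once the reagent was added. Beforehand, cells were cultured at 37°C and 5% carbon dioxide on a compound series serially diluted in dimethyl sulfoxide.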

For test [2], the system named is human colorectal cancer strain GP2d. The class given is cell-based. The protocol:
(§1) A test compound was dispensed into a U-bottom 384-well plate as 40 nL serially diluted dimethyl sulfoxide solutions using a liquid handler Echo (LABCYTE). As for human colorectal cancer strain GP2d (ECACC), a cell suspension was prepared so as to have 500 cells/40 µL in a Dulbecco's modified Eagle medium supplemented with 10% fetal bovine serum (Sigma). This cell suspension was dispensed in an amount of 40 µL per well into a plate containing the test compound, and cultured at 37°C in a 5% carbon dioxide gas incubator. Seven days later, 20 µL of CellTiter-Glo (registered trademark) (Promega) was added to each well and luminescence was measured.

Test [3] relates to human gastric cancer strain SNU-1. Format: cell-based. The procedure: as §1, with “gastric” for “colorectal”, “SNU-1 (ATCC),” for “GP2d (ECACC),”, “250” for “500”, “an RPMI-1640” for “a Dulbecco's modified Eagle”, “medium (Sigma)” for “medium”, “(Sigma), a 2.5 g/L D-(+)-glucose solution, 10 mmol/L HEPES, and 1 mmol/L sodium pyruvate.” for “(Sigma).”
The test system of test [4] is human pancreatic cancer strain KP4. The class given is cell-based. The procedure: as §1, with “pancreatic” for “colorectal”, “KP4 (Institute of Physical and Chemical Research),” for “GP2d (ECACC),”, “DMEM/Ham's F-12” for “Dulbecco's modified Eagle”, “medium (Nacalai Tesque)” for “medium”
Test [5] deals with human ovarian cancer strain OV7. Format: cell-based. The protocol: A test compound was dispensed into a U-bottom 384-well plate as 40 nL serially diluted dimethyl sulfoxide solutions using a liquid handler Echo (LABCYTE). As for human ovarian cancer strain OV7 (ECACC), a cell suspension was prepared so as to have 250 cells/40 µL in a DMEM/Ham's F-12 medium (Nacalai Tesque) supplemented with 5% fetal bovine serum (Sigma), 0.5 µg/mL hydrocortisone, and 10 µg/mL insulin. This cell suspension was dispensed in an amount of 40 µL per well into a plate containing the test compound, and cultured at 37°C in a 5% carbon dioxide gas incubator. Seven days later, 20 µL of CellTiter-Glo (registered trademark) (Promega) was added to each well and luminescence was measured.

For test [6], the target named is GDP-bound NRAS wild-type protein (Homo sapiens, UniProt P01111). The test can be described thus: Binding to NRAS by surface plasmon resonance (SPR), KD and KD ratio to KRAS. Particulars: ratio of KD for GDP-bound NRAS wild-type protein to KD for KRAS. In outline:
(§2)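 Each cycle, GDP-bound biotin-Avi RAS was captured (~100–300 RU), compound concentrations were injected low to high for 75 s each at 100 µL/min, then the chip was regenerated. Buffer: HBS pH 7.4, 10 mM MgCl2, 10 µM GDP, 1 mM DTT, 4% DMSO; 30°C. KD from a 1:1 binding model.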
On the technique in general: In SPR one partner is held on a chip, and binding of the other changes the refractive index at the surface.

The test system of test [7] is human bladder cancer strain UM-UC-3. Format: cell-based. The procedure:
A test compound was dispensed into a U-bottom 384-well plate as 40 nL serially diluted dimethyl sulfoxide solutions using a liquid handler Echo (LABCYTE). As for human bladder cancer strain UM-UC-3 (ATCC), a cell suspension was prepared so as to have 250 cells/40 µL in an MEM medium (Nacalai Tesque) supplemented with 10% fetal bovine serum (Sigma), an MEM non-essential amino acids solution (100X), and 1 mmol/L sodium pyruvate. This cell suspension was dispensed in an amount of 40 µL per well into a plate containing the test compound, and cultured at 37°C in a 5% carbon dioxide gas incubator. Seven days later, 20 µL of CellTiter-Glo (registered trademark) (Promega) was added to each well and luminescence was measured. […]

Another test deals with HRAS wild-type protein (Homo sapiens, UniProt P01112). The test can be described thus: Binding to HRAS by surface plasmon resonance (SPR), KD and KD ratio to KRAS. Particulars: ratio of KD for HRAS wild-type protein to KD for KRAS. In outline: as §2
Chain of HRAS wild-type protein (P01112 whole entry, the tested form may be a part): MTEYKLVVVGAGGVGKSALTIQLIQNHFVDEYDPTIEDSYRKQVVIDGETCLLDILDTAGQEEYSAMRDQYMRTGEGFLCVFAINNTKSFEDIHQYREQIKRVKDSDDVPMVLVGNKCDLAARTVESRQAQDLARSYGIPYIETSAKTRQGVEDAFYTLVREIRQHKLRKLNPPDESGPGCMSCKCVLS
In test [8] the target is GDP-bound KRAS wild-type protein (Homo sapiens, UniProt P01116). The test is described as follows: Binding to KRAS by surface plasmon resonance (SPR), dissociation constant KD. In outline: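 Read-out is KD from 1:1 fitting of single-cycle kinetics sensorgrams, blank-cycle and reference-surface corrected. Proteins were GDP-loaded, biotinylated Avi-fusions freshly captured each cycle at roughly 100–300 RU. Runs were at 30°C in HBS pH 7.4 with MgCl2, GDP and 4% DMSO.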
Chain of GDP-bound KRAS wild-type protein (P01116 1-188 isoform P01116-2): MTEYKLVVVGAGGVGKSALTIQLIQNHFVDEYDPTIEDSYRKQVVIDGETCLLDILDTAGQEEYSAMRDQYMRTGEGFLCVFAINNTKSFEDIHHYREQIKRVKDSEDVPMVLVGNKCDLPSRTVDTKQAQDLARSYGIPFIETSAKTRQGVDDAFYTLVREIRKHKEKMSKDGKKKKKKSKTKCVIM

In test [9] the test system is human gastric cancer strain GSU. Format: cell-based. The protocol: as §1, with “gastric” for “colorectal”, “GSU (Institute of Physical and Chemical Research),” for “GP2d (ECACC),”, “200” for “500”, “an RPMI-1640” for “a Dulbecco's modified Eagle”, “medium (Sigma)” for “medium”

Consider 4 compounds from patent publication EP4603105A1, “PHARMACEUTICAL COMPOSITION CONTAINING CYCLIC COMPOUND HAVING SELECTIVE KRAS INHIBITORY EFFECT AGAINST HRAS AND NRAS” (CHUGAI SEIYAKU KABUSHIKI KAISHA, priority 2022, dated 2024).

Chain of GDP-bound NRAS wild-type protein (P01111 whole entry): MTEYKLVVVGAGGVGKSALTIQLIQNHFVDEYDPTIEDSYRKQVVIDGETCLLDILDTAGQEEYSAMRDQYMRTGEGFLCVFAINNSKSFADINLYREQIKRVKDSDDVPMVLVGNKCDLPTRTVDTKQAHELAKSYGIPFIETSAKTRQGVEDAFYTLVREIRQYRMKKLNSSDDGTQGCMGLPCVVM

For `CCO[C@@H]1C[C@H]2C(=O)NC3(CCCC3)C(=O)N(C)[C@@H](C3CCCC3)C(=O)N(C)[C@H](C(=O)N(C)C)CC(=O)N(C)[C@@H](CC(C)C)C(=O)N[C@@H]([C@@H](C)CC)C(=O)N(C)CC(=O)N(C)[C@H]3C/C=C\CCN(C3=O)[C@@H](Cc3ccc(C(F)(F)F)cc3)C(=O)N(C)CC(=O)N[C@@H](CCc3cc(F)c(C(F)(F)F)c(F)c3)C(=O)N2C1` [PP1105, (2S,8S,12R,14S,20S,23S,27S,30S,36S,38Z)-20-cyclopentyl-8-[2-[3,5-difluoro-4-(trifluoromethyl)phenyl]ethyl]-12-ethoxy-27-isobutyl-N,N,4,19,22,26,32,35-octamethyl-30-[(1S)-1-methylpropyl]-3,6,9,15,18,21,25,28,31,34,42-undecaoxo-2-[[4-(trifluoromethyl)phenyl]methyl]spiro[1,4,7,10,16,19,22,26,29,32,35-undecazatricyclo[34.5.1.0^10,14]dotetracont-38-ene-17,1'-cyclopentane]-23-carboxamide], the IC50 in test [1] is 12 nM; in test [2], 2.9 nM; in [3], 2.7 nM; in [4], 3.1 nM; in test [5] it was 8.1 nM; in [7], 2.1 nM. In test [9], this compound displayed a 50% inhibitory concentration (IC50) of 0.3 nM. In [6], the “NRAS /KRAS” value is “A (a compound having 10 or more and less than 20 is denoted as A)”. Moreover, the “HRAS /KRAS” value on HRAS wild-type protein is “A (a compound having 10 or more and less than 20 is denoted as A)”. This compound gave a Kd in test [8] (Single Cycle Kinetics) of 0.07 nM.
As to `C#CC[C@H]1C(=O)N[C@@H]([C@@H](C)CC)C(=O)N(C)CC(=O)N(C)[C@H]2C/C=C\CCN(C2=O)[C@@H](Cc2ccc(C)cc2)C(=O)N(C)CC(=O)N[C@@H](CCc2cc(F)c(C(F)(F)F)c(F)c2)C(=O)N2C[C@H](OCC)C[C@H]2C(=O)N(C)C2(CCC2)C(=O)N(C)[C@@H](C2CCCC2)C(=O)N(C)[C@H](C(=O)N(C)C)CC(=O)N1C` [PP3238, (2S,8S,12R,14S,20S,23S,27S,30S,36S,38Z)-20-cyclopentyl-8-[2-[3,5-difluoro-4-(trifluoromethyl)phenyl]ethyl]-12-ethoxy-N,N,4,16,19,22,26,32,35-nonamethyl-30-[(1S)-1-methylpropyl]-3,6,9,15,18,21,25,28,31,34,42-undecaoxo-27-prop-2-ynyl-2-(p-tolylmethyl)spiro[1,4,7,10,16,19,22,26,29,32,35-undecazatricyclo[34.5.1.0^10,14]dotetracont-38-ene-17,1'-cyclobutane]-23-carboxamide], the IC50 in test [1] was 1.9 nM; in test [2], 1.5 nM; in test [3], 2.1 nM; in test [4] it was 4.2 nM; in test [5], 2.1 nM; in test [7], 1.5 nM. In addition, the IC50 in test [9] was found to be 0.6 nM. For the same compound, the “NRAS /KRAS” value in test [6] is “A (a compound having 10 or more and less than 20 is denoted as A)”. Further, the “HRAS /KRAS” value at HRAS wild-type protein was “A (a compound having 10 or more and less than 20 is denoted as A)”. The same compound came in with a Kd in test [8] (Single Cycle Kinetics) of 0.022 nM.
In the case of `CCO[C@@H]1C[C@H]2C(=O)OC3(CCC3)C(=O)N(C)[C@@H](C3CCCC3)C(=O)N(C)[C@H](C(=O)N(C)C)CC(=O)N(C)[C@@H]([C@@H](C)OC)C(=O)N[C@@H]([C@@H](C)CC)C(=O)N(C)CC(=O)N(C)[C@H]3C/C=C\CCN(C3=O)[C@@H](Cc3ccc(C(F)(F)F)cc3)C(=O)N(C)CC(=O)N[C@@H](CCc3ccc(C(F)(F)F)c(OC)c3)C(=O)N2C1` [PP3376, (2S,8S,12R,14S,20S,23S,27S,30S,36S,38Z)-20-cyclopentyl-12-ethoxy-27-[(1R)-1-methoxyethyl]-8-[2-[3-methoxy-4-(trifluoromethyl)phenyl]ethyl]-N,N,4,19,22,26,32,35-octamethyl-30-[(1S)-1-methylpropyl]-3,6,9,15,18,21,25,28,31,34,42-undecaoxo-2-[[4-(trifluoromethyl)phenyl]methyl]spiro[16-oxa-1,4,7,10,19,22,26,29,32,35-decazatricyclo[34.5.1.0^10,14]dotetracont-38-ene-17,1'-cyclobutane]-23-carboxamide], the IC50 in test [1] was 2.4 nM; in [2], 2.9 nM; in test [3], 4.3 nM; in test [4] it was 6.8 nM; in test [5] it was 4.3 nM; in [7], 2.2 nM. In test [9], the IC50 turned out to be 0.6 nM. Moreover, in [6], the “NRAS /KRAS” value is “A (a compound having 10 or more and less than 20 is denoted as A)”. In addition, the “HRAS /KRAS” value on HRAS wild-type protein is “A (a compound having 10 or more and less than 20 is denoted as A)”. In test [8] (Single Cycle Kinetics), this compound registered a Kd of 0.096 nM.
With `CCO[C@@H]1C[C@H]2C(=O)NC3(CC(C)(C)C3)C(=O)N(C)[C@@H](C3CCCC3)C(=O)N(C)[C@H](C(=O)N(C)C)CC(=O)N(C)[C@@H]([C@@H](C)OC)C(=O)N[C@@H]([C@@H](C)CC)C(=O)N(C)CC(=O)N(C)[C@H]3C/C=C\CCN(C3=O)[C@@H](Cc3ccc(C(F)(F)F)cc3)C(=O)N(C)CC(=O)N[C@@H](CCc3ccc(C(F)(F)F)c(Cl)c3)C(=O)N2C1` [PP3198, (2S,8S,12R,14S,20S,23S,27S,30S,36S,38Z)-8-[2-[3-chloro-4-(trifluoromethyl)phenyl]ethyl]-20-cyclopentyl-12-ethoxy-27-[(1R)-1-methoxyethyl]-N,N,3',3',4,19,22,26,32,35-decamethyl-30-[(1S)-1-methylpropyl]-3,6,9,15,18,21,25,28,31,34,42-undecaoxo-2-[[4-(trifluoromethyl)phenyl]methyl]spiro[1,4,7,10,16,19,22,26,29,32,35-undecazatricyclo[34.5.1.0^10,14]dotetracont-38-ene-17,1'-cyclobutane]-23-carboxamide], the IC50 turned out to be 4.4 nM in test [1]; 2.4 nM in test [2]; 3.2 nM in test [3]; 4.7 nM in [4]; 7.2 nM in test [5]; 2.5 nM in test [7]. Inhibition in test [9] was half-maximal at 0.4 nM (IC50). The “NRAS /KRAS” value in [6] is “A (a compound having 10 or more and less than 20 is denoted as A)”. Also, the “HRAS /KRAS” value on HRAS wild-type protein is “A (a compound having 10 or more and less than 20 is denoted as A)”. Besides, the Kd in [8] (1:1 binding model) worked out at 0.04 nM.

What is called IC50 is the concentration that inhibits the measured activity by half. Higher therefore signals weaker potency in that assay. The Kd is a measure of binding affinity in units of concentration. Low readings indicate a tighter complex, high ones a looser complex.
